In US20190225557A1, “IMPROVED UREA-BASED C[…] SULPHUR AND METHOD FOR THE MANUFACTURE THEREOF” (YARA INT[…], priority 2016, published 2019):

How the values were obtained:
[1] = type: physicochemical; conditions: urea + 10.5% ES + 500 ppm nBTPT as Amiplus liquid (Exp. H-M); open pots in nissenhut; measured after 28 days (ranking given as after 14 days)
Experimental: (§1) 1.2 kg of solid fertilizer material was added to a lab scale drum. In a next step, the nBTPT material was slowly added and subsequently followed, if applied, by an alkaline or alkaline-forming inorganic or organic compound. A residence time of 10 minutes was applied and the rotating speed of the drum was consequently the same in each experiment. In case a moisture-repellent coating was added, a nebulizer was used and, depending on the order of addition, the moisture-repellent coating was added before or after addition of the nBTPT material. Before use, the moisture-repellent coating was preheated to 80° C.
Typically, a day/night cycle is generated in the nissenhut, with temperature fluctuations between 0 to 42° C. and fluctuations of relative humidity between 20 and 90%, which can be compared with real life storage in silos.
The samples were stored 28 days in open pots in nissenhut.
The samples were stored for 28 days in open pots in nissenhut.

[2] = Accelerated storage stability of nBTPT on fertilizer granules (HPLC analysis of nBTPT content); type: physicochemical; conditions: nBTPT formulations (500 ppm powder or Agrotain Ultra) applied onto urea comprising 9% elemental sulphur (samples B, C); 12 days at 70° C. in closed plastic container
Experimental: as §1
For some samples, an accelerated stability test was done after storing these samples at elevated temperatures: • Oven of 30° C., open to air • 70° C. in a closed plastic container
HPLC analysis of nBTPT is done as described in the procedure CEN 15688-2007.
This set of samples was stored at room temperature (20-25° C.) in bags and at elevated temperature (30° C. and 70° C., accelerated stability test).

Compound | effectivity of the stabilizers (ranking) on stability of nBTPT [1] | nBTPT level after storage [2] [weight %]
O=C([O-])[O-].[Ca+2] [CaCO3, calcium carbonate] | CaCO3═MgO>CaO>ZnO>Et3N>no stabilizer | –
[O]=[Ca] [CaO, calcium oxide] | CaCO3═MgO>CaO>ZnO>Et3N>no stabilizer | –
[O]=[Mg] [MgO, magnesium oxide] | CaCO3═MgO>CaO>ZnO>Et3N>no stabilizer | –
CCCCNP(N)(N)=S [nBTPT, N-(n-butyl) thiophosphoric triamide] | – | 0
[O]=[Zn] [ZnO, zinc oxide] | CaCO3═MgO>CaO>ZnO>Et3N>no stabilizer | –
